Data on two molecules can be found in US20240241113A1, “Method for detecting binding to an ADP-ribosyl group or a polymer thereof and a kit for performing said method” (priority 2021, published 2024).

A word on the inhibition: it is the relative decrease from the control value, in per cent. Broadly, the IC50 is the concentration needed to halve the response being measured.

In assay [1] the target is T1, SARS-CoV-2 nsp3 macrodomain (Severe acute respiratory syndrome coronavirus 2, UniProt P0DTD1). The experiment in a line: FRET-based binding assay, CFP-SARS-CoV-2 nsp3 macrodomain with MARylated YFP-Gαi. How it is done: (§1) The experiments were carried out in assay buffer (10 mM Bis-Tris-Propane pH 7.0, 3% (w/v) PEG20,000, 0.01% (v/v) Triton X-100 and 0.5 mM TCEP) in 10 μl volume per well unless stated otherwise.
For the screening, 40 nl of 10 mM compound stocks dissolved in DMSO from the FDA-approved drug library (Enzo Life Sciences) were transferred to 384-well black low-volume polypropylene plates (Fisherbrand). The sample mixture containing 1 μM CFP-SARS-CoV-2 nsp3 macrodomain and 5 μM MARylated YFP-Gαi was prepared in assay buffer (10 mM Bis-Tris-Propane pH 7.0, 3% (w/v) PEG20,000, 0.01% (v/v) Triton X-100 and 0.5 mM TCEP) and 20 μl per well were dispensed using Mantis (Formulatrix). The rFRET signal was determined after 5 minute incubation time.

The target of assay [2] is T1, SARS-CoV-2 nsp3 macrodomain. The experiment in a line: Validation of suramin binding by DSF. The note with it: 5 μM macrodomain without tags, suramin 10 μM, 50 μM, 100 μM or 1 mM. How it is done:
The SARS-CoV-2 nsp3 macrodomain without tags was diluted to 5 μM in 10 mM HEPES pH 7.5, 25 mM NaCl, 0.5 mM TCEP buffer and mixed with 5×SYPRO Orange. Samples were prepared with 10 μM, 50 μM, 100 μM or 1 mM of suramin. […] Samples were transferred to 96-well qPCR plates. Measurement was performed in a BioRad C1000 CFX96 thermal cycler. Data points for melting curves were recorded in 1 min intervals from 20-95° C., with the temperature increasing by 1° C./min. The analysis of the data was done in GraphPad Prism 7 using a nonlinear regression analysis (Boltzmann sigmoid equation) of normalized data.

Assay [3] deals with viral and human ADP-ribose readers and erasers. The experiment in a line: FRET inhibition profile against ADP-ribosyl binders with YFP-GAP(MAR) or YFP-GAP(PAR). The format is binding. Conditions: 10 μM suramin; many of the proteins tested; ratiometric FRET. How it is done: as §1
In the next assay the test system is SARS-CoV2. The note with it: cell-culture based models; reported; cited from earlier work.
A further assay has as its target CFP-ALC1 (human) (UniProt Q86WJ1). Kind of assay: FRET competition: 250 nM CFP-ALC1 + 500 nM YFP-GAP(PAR), PARylated PARP2 varied; displaced ligand YFP-GAP(PAR) [e].

CFP-ALC1 (human), sequence (Q86WJ1 616-878 limits assumed): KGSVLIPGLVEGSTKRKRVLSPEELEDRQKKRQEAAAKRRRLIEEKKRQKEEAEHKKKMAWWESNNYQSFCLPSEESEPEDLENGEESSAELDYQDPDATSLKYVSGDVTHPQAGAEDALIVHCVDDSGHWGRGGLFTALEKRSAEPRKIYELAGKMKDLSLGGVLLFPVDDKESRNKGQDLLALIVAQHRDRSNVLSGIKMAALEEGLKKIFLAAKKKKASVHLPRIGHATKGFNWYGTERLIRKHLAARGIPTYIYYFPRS

For the molecule `Cc1ccc(C(=O)Nc2ccc(S(=O)(=O)O)c3cc(S(=O)(=O)O)cc(S(=O)(=O)O)c23)cc1NC(=O)c1cccc(NC(=O)Nc2cccc(C(=O)Nc3cc(C(=O)Nc4ccc(S(=O)(=O)O)c5cc(S(=O)(=O)O)cc(S(=O)(=O)O)c45)ccc3C)c2)c1` [suramin], the inhibition at 20 µM in assay [1] (20 μM compound, 1 μM CFP-SARS-CoV-2 nsp3 macrodomain, 5 μM MARylated YFP-Gαi, rFRET, read-out: inhibition in screen of ENZO FDA-approved drug library) amounted to 82%. The concentration for half-maximal inhibition (IC50) in assay [1] (FRET-based assay, dose-response curve, read-out: IC50 against the SARS-CoV-2 nsp3 macrodomain) is 8.7 µM. Besides, the entries for the “stabilization of the protein by DSF” value in assay [2] and in assay [2] (listed as Suramin) were “stabilization of the protein in a concentration dependent manner” and “stabilization”, respectively. Also, in assay [3], the “inhibition of viral and human ADP-ribose readers and erasers” value was “strong inhibition”. In addition, the “inhibition of SARS-CoV2 infection” value in the assay on SARS-CoV2 is recorded as “inhibit”.

Regarding “PARylated PARP2 (from UniProt Q9UGN5 90-583) (enzyme)”, the IC50 (read off the curve) with CFP-ALC1 (human) was determined as 30 nM.
